Patent US11427575B2, “Antitumor compound for activating JWA gene and degrading HER2, preparation method thereof, and application thereof” (SIMCERE PHARMACEUTICAL CO., LTD., priority 2019, dated 2022)

Tested on: promoter of JWA gene
Experiment: Luciferase reporter gene under control of JWA gene promoter in HBE cells (high-throughput screening)
Type: cell-based, human
Conditions: 48 h
Description: High-throughput screening (HTS) was used to identify the human bronchial epithelial (HBE) cells stably transfected with a DNA construct with a luciferase gene under control of a 2,000 bp long promoter of JWA gene.
FIG. 1 is a sequence containing the 2000 bp promoter sequence of JWA gene that was used for a luciferase reporter gene plasmid construction.

Structure (SMILES) | fluorescence intensity of reporter gene (0.05 μg/mL) | fluorescence intensity of reporter gene (0.10 μg/mL) | fluorescence intensity of reporter gene (0.21 μg/mL) | fluorescence intensity of reporter gene (0.41 μg/mL) | fluorescence intensity of reporter gene (0.83 μg/mL) | fluorescence intensity of reporter gene (1.65 μg/mL) | fluorescence intensity of reporter gene (3.30 μg/mL)
COc1cccc2sc(Nc3nc4c(F)ccc(F)c4s3)nc12 [JAC1011, 4,7-difluoro-n-(4-methoxybenzo-thiazole-2-group) benzoylthiazole-2-amine] | 13255.33 | 13553.33 | 15397.33 | 19835.00 | 25886.67 | 31413.33 | 39676.33
COc1cccc2sc(Nc3nc4c(F)cc(F)cc4s3)nc12 [JAC1012, 4,6-difluoro-n-(4-methoxylbenzene (d)thiazole-2-group) benzene (d) thiazole-2-amine] | 13448.67 | 13518.67 | 16205.00 | 19768.67 | 25237.33 | 33228.00 | 41139.33
COc1cccc2sc(Nc3nc4c(C(F)(F)F)cccc4s3)nc12 [JAC1013, 4-methoxy-N-(4-(trifluoromethyl)benzo (d)thiazole-2-group) benzo (d) thiazole-2-amine] | 13315.33 | 12346.00 | 14926.00 | 16036.67 | 20014.00 | 26261.67 | 35332.33
COc1ccc(OC)c2sc(Nc3nc4c(F)cccc4s3)nc12 [JAC1014, N-(4-fluorobenzoyl (d)thiazole-2-group)-4,7-dimethoxy benzozoyl (d) thiazole-2-amine] | 13835.33 | 14254.00 | 15262.67 | 18680.00 | 22088.00 | 28702.00 | 37664.67
COc1cc(OC)c2nc(Nc3nc4c(F)cccc4s3)sc2c1 [JAC1015, N-(4-fluorobenzoyl (d)thiazole-2-group)-4,6-dimethoxy benzozoyl (d) thiazole-2-amine] | 14335.33 | 15573.33 | 18260.67 | 22168.67 | 28162.67 | 30168.67 | 37663.33
COc1ccc(OC)c2sc(Nc3nc4c(C(F)(F)F)cccc4s3)nc12 [JAC1016, 4,7-dimethoxyn-(4-(trifluoromethyl)benzene (d)thiazole-2-group) benzene (d) thiazole-2-amine] | 14360.00 | 16238.00 | 19226.00 | 24518.00 | 28746.00 | 32253.33 | 36361.67
COc1cc(OC)c2nc(Nc3nc4c(C(F)(F)F)cccc4s3)sc2c1 [JAC1017, 4,6-dimethoxyn-(4-(trifluoromethyl)benzo (d)thiazole-2-group) benzo (d) thiazole-2-amine] | 12910.00 | 13086.67 | 14460.00 | 17188.00 | 22680.00 | 28406.00 | 37426.00
